From patent US10745387B2, “Crystalline form of (2S,3S,6S,7R,10R,E)-7,10-dihydroxy-3,7-dimethyl-12-oxo-2-((R,2E,4E)-6-(piridin-2-yl)hepta-2,4-dien-2-yl)oxacyclododec-4-en-6-yl-4-methylpiperazine-1-carboxylate and methods of use thereof” (EISAI R&D MANAGEMENT CO., LTD., priority 2015, dated 2020)
pIC50: −log10 of the molar value.

What was measured:
[1] = Solid state stability study; type: physicochemical
Method: Solid state stability studies were carried out on crystalline Form 1 under the following conditions: • Stored at 25° C. for 7 and 14 days • Stored at 40° C./75% RH (open) for 7 and 14 days • Stored at 60° C. for 7 and 14 days

[2] = tested on: WiDr-R cells (SF3B1 R1074H mutation); settings: cited from earlier work
[3] = tested on: WiDr cells (wildtype SF3B1); assay: Cell viability assay (CellTiter-Glo), WiDr; type: cell-based; settings: Homo sapiens, 72 hr, ATP (CellTiter-Glo)
Method: (§1) Cells (WiDr and Panc05.04 obtained from ATCC) were seeded in 96-well plates, with 2000 cells/1004/well, and incubated overnight. Spent media was removed, and fresh, media containing 9 different concentrations of compound (1004/well) were added, with DMSO concentration from compound stock solution adjusted to be 0.1%. Each compound treatment was done in duplicate or triplicate at each concentration.
(§2) Another plate with cells seeded was dedicated as a time zero (Tz) plate, to which was added 0.1% DMSO in media (1004/well) followed by CellTiter-Glo® reagent (Promega Corporation, Madison, Wis.) (504/well) for ATP measurement as a surrogate of cell viability. Average value from measurement of multiple wells of this plate is used as Tz.
(§3) Compound-treated plates were incubated for 72 hr at 37° C. Then, CellTiter-Glo® reagent (504/well) was added and ATP was measured. […]
(§4) Percentage growth inhibition/Percentage viability was calculated as: [(Ti−Tz)/(C−Tz)]×100 for concentrations for which Ti>/=Tz [(Ti−Tz)/Tz]×100 for concentrations for which Ti<Tz. *time zero (Tz), control growth (C), and test growth in the presence of compound (Ti) Percentage growth inhibition/Percentage viability are plotted versus compound concentration to determine Emax. […]

[4] = tested on: WiDr-R cells (SF3B1 R1074H mutation); assay: Cell viability assay, resistant WiDr-R counter-screen; type: cell-based; settings: 72 hr, ATP (CellTiter-Glo)
[5] = tested on: Panc 05.04 (mt SF3B1 cells); assay: Cell viability assay (CellTiter-Glo), Panc 05.04; type: cell-based; settings: 72 hr
Method: as §1, §2, §3, §4

[6] = tested on: splicing of Ad2 pre-mRNA in HeLa nuclear extract; assay: In vitro splicing (IVS) biochemical assay; settings: 90 min, 30° C.
Method: Biotin-labeled pre-mRNA of an adenovirus type 2 construct with a deletion of intervening sequence (Ad2) (Berg, M. G., et al. 2012 Mol. Cell Bio., 32(7):1271-83) was prepared by in vitro transcription. The Ad2 construct containing Exon 1 (41 nucleotides), Intron (231 nucleotides), and Exon 2 (72 nucleotides) was generated by gene synthesis and cloned into the EcoRI and XbaI sites of pGEM®-3Z vector (Promega) by Genewiz® (South Plainfield, N.J.). The plasmid was then linearized by XbaI digestion and purified. In vitro transcription and purification of transcribed pre-mRNA were performed using the MEGAscript® T7 transcription kit (Invitrogen™, Life Technologies™, Grand Island, N.Y.) and MEGAclear™ transcription clean-up kit (Invitrogen™, Life Technologies™, Grand Island, N.Y.), respectively, following the manufacturer's instructions. […]
In vitro splicing assay was performed at 30° C. in 254 reaction mixtures containing 95 μg HeLa nuclear extract (Promega Corporation, Madison, Wis.), 47 nM Ad2 pre-mRNA, 25U RNasin RNase inhibitor (Promega Corporation, Madison, Wis.), 1×SP buffer (0.5 mM ATP, 20 mM creatine phosphate, 1.6 mM MgCl2), and compounds in DMSO (with 1% final concentration of DMSO). […] The amount of spliced RNA was quantified by measuring the band fluorescent intensity using LI-COR Image Studio software. […]

With `C/C(=C\C=C\[C@@H](C)c1ccccn1)[C@H]1OC(=O)C[C@H](O)CC[C@@](C)(O)[C@@H](OC(=O)N2CCN(C)CC2)/C=C/[C@@H]1C` [crystalline Form 1, (2S,3S,6S,7R,10R,E)-7,10-dihydroxy-3,7-dimethyl-12-oxo-2-((R,2E,4E)-6-(pyridin-2-yl)hepta-2,4-dien-2-yl)oxacyclododec-4-en-6-yl 4-methylpiperazine-1-carboxylate] the “Degradation on storage (solid state stability)” value ([1]; 25° C., 40° C./75% RH (open), 60° C., each for 7 and 14 days) was “No significant degradation” and the “Change in crystallinity (XRPD and TGA-DSC)” value ([1]; 40° C./75% RH (open) for 14 days) was “no change in crystallinity”.
For pladienolide B, the “Growth inhibition in WiDr-R cells (resistance)” value [2] is listed as “resistant”.
For `CCC(O)C(C)C1OC1CC(C)(O)/C=C/C=C(\C)C1OC(=O)CC(O)CCC(C)(O)C(OC(=O)N2CCN(C3CCCCCC3)CC2)/C=C/C1C` (stereo not drawn) [Compound E7107, (8E,12E,14E)-7-((4-cycloheptylpiperazin-1-yl)carbonyl)oxy-3,6,16,21-tetrahydroxy-6,10,12,16,20-pentamethyl-18,19-epoxytricosa-8,12,14-trien-11-olide], the “Growth inhibition in WiDr-R cells (resistance)” value [2] is given as “resistant”.
In the case of `C/C(=C\C=C\[C@@H](C)c1ccccn1)[C@H]1OC(=O)C[C@H](O)CC[C@@](C)(O)[C@@H](OC(=O)N2CCN(C)CC2)/C=C/[C@@H]1C` [Compound 1, (2S,3S,6S,7R,10R,E)-7,10-dihydroxy-3,7-dimethyl-12-oxo-2-((R,2E,4E)-6-(pyridin-2-yl)hepta-2,4-dien-2-yl)oxacyclododec-4-en-6-yl 4-methylpiperazine-1-carboxylate], the GI50 [3] was 0.0318 µM, the GI50 [4] was > 1 µM and the GI50 ([5]; ATP (CellTiter-Glo)) was 0.0327 µM. For the same compound, the Emax ([5]; negative value indicates cellular lethality) was -66.1% and the pIC50 [6] was 5.88.
